Results on 3 compounds are retold here after patent US4659734A, “Olinecarboxylic acid derivatives” (Nippon Shinyaku Co., Ltd., priority 1983, dated 1987).

Series [1] relates to Bacillus subtilis ATCC 6633. In words: Minimum growth inhibiting concentration, Japan Chemotherapeutic Society method. The class given is cell-based. Particulars: ATCC6633; Bacillus subtilis ATCC 6633, Gram +; 5% horse blood added agar medium; read-out: Minimum Growth Inhibiting Concn. The procedure: (§1) The Antibacterial activity of the compounds of Examples 14, 13, 22b, 21 and 15 was determined in accordance with the method of Japan Chemotherapeutic Society (cf. Nippon Kagaku Ryoho Gakkai Shi, volume 29, number 1, pages 76 to 79, 1981) and the results are reported in Table 1, which follows. | *5% Horse blood added agar medium for sensitivity measurement being used.

Series [2] deals with Streptococcus pneumoniae Type I. Described as above. It is filed as cell-based. Particulars: Gram +, 5% horse blood added agar medium, read-out: Minimum Growth Inhibiting Concn. The procedure:
as §1

Series [3] relates to Streptococcus pyogenes S-23. Described as above. It is filed as cell-based. As to conditions: S23; Streptococcus pyogenes S-23, Gram +; 5% horse blood added agar medium; read-out: Minimum Growth Inhibiting Concn. The procedure:
as §1

In series [4] the test system is Acinetobacter calcoacelicus 54. Described as above. The class given is cell-based. Particulars: Acinetobacter calcoacelicus 54, Gram -; read-out: Minimum Growth Inhibiting Concn. The method, then: (§2) The Antibacterial activity of the compounds of Examples 14, 13, 22b, 21 and 15 was determined in accordance with the method of Japan Chemotherapeutic Society (cf. Nippon Kagaku Ryoho Gakkai Shi, volume 29, number 1, pages 76 to 79, 1981) and the results are reported in Table 1, which follows.

Series [5] has as its system Alcaligenes faecalis ATCC 8750. Described as above. Particulars: ATCC8750; Alcaligenes faecalis ATCC 8750, Gram -; read-out: Minimum Growth Inhibiting Concn. It is filed as cell-based. The procedure:
as §2

Series [6] has as its system Escherichia coli KC-14. Described as above. The class given is cell-based. As to conditions: KC14; Escherichia coli KC-14, Gram -; read-out: Minimum Growth Inhibiting Concn. The method, then: as §2
Series [7] relates to Escherichia coli NIHJ JC-2. The description is as above. It is filed as cell-based. As to conditions: NIHJJC2; Escherichia coli NIHJ JC-2, Gram -; read-out: Minimum Growth Inhibiting Concn. The method, then: as §2
For series [8], the system named is Klebsiella pneumoniae K-1966. The series is described as above. The class given is cell-based. Particulars: K1966; Klebsiella pneumoniae K-1966, Gram -; read-out: Minimum Growth Inhibiting Concn. The method, then: as §2
The subject of series [9] is Listeria monocytogenes RIMD 1205020. Described as above. Particulars: RIMD1205020; Listeria monocytogenes RIMD 1205020, Gram +; read-out: Minimum Growth Inhibiting Concn. It is filed as cell-based. The method, then: as §2
The subject of series [10] is Micrococcus luteus ATCC 9341. The description is as above. The class given is cell-based. As to conditions: ATCC9341; Micrococcus luteus ATCC 9341, Gram +; read-out: Minimum Growth Inhibiting Concn. The method, then: as §2
The subject of series [11] is Proteus mirabilis 181. Described as above. It is filed as cell-based. As to conditions: Proteus mirabilis 181, Gram -; read-out: Minimum Growth Inhibiting Concn. The method, then:
as §2

Series [12] concerns Proteus vulgaris DX-19. Described as above. As to conditions: DX19; Proteus vulgaris DX-19, Gram -; read-out: Minimum Growth Inhibiting Concn. It is filed as cell-based. The method, then:
as §2

The subject of series [13] is Pseudomonas aeruginosa E-2. Described as above. The class given is cell-based. As to conditions: E2; Pseudomonas aeruginosa E-2, Gram -; read-out: Minimum Growth Inhibiting Concn. The procedure: as §2
Series [14] relates to Pseudomonas aeruginosa No. 12. The description is as above. The class given is cell-based. As to conditions: Pseudomonas aeruginosa No. 12, Gram -; read-out: Minimum Growth Inhibiting Concn. The method, then:
as §2

The subject of series [15] is Pseudomonas cepacia ATCC 25416. The series is described as above. As to conditions: Burkholderia cepacia, ATCC25416; Pseudomonas cepacia ATCC 25416, Gram -; read-out: Minimum Growth Inhibiting Concn. It is filed as cell-based. The method, then: as §2
Series [16] relates to Pseudomonas maltophilia ATCC 13637. The series is described as above. The class given is cell-based. As to conditions: Stenotrophomonas maltophilia, ATCC13637; Pseudomonas maltophilia ATCC 13637, Gram -; read-out: Minimum Growth Inhibiting Concn. The procedure: as §2
Series [17] relates to Serracia marcescens IFO 3736. The series is described as above. The class given is cell-based. As to conditions: Serracia marcescens IFO 3736, Gram -; read-out: Minimum Growth Inhibiting Concn. The procedure:
as §2

For series [18], the system named is Staphylococcus aureus 209-PJC. The description is as above. It is filed as cell-based. Particulars: Gram +, read-out: Minimum Growth Inhibiting Concn. The procedure:
as §2

In series [19] the test system is Staphylococcus aureus Smith. The series is described as above. As to conditions: Gram +, read-out: Minimum Growth Inhibiting Concn. It is filed as cell-based. The method, then:
as §2

The nature of series [20]: Acute toxicity. As to conditions: mouse, in vivo; oral, groups of ten ddY male mice; read-out: 50% Lethal Doses (LD50). The procedure:
Groups of ten ddY strain male mice (body weights: 20±1 grams) of the test compound were orally administered to determine the LD50. There was […] in which many mice died when the dose was 2000 mg/kg or less.

In series [21] the test system is Escherichia coli KC-14. In words: Mouse intraperitoneal infection, survival after one week. Particulars: KC14, po; Escherichia coli KC-14, 5 × 10^4 per mouse; one dose per os 2 h after infection. The class given is in vivo, ddY strain mice. The procedure: (§3) ddY--Strain mice (male; body weight 20±1 grams) of SPF were innoculated with the bacteria set forth in Table 2 by administration of a supension of the bacterial in 4% mucin solution into the abdominal cavity. A compound of the invention was given one time per os two hours after the infection, and, from the survival rate after one week. 50% effective doses (ED50) were calculated by the Behrens-Karber method.

For series [22], the system named is Pseudomonas aeruginosa E-2. Described as above. It is filed as in vivo, ddY strain mice. Particulars: E2, po; Pseudomonas aeruginosa E-2, 2 × 10^5 per mouse; one dose per os 2 h after infection; Behrens-Karber. The procedure:
as §3

Values after ≈ are worked out from the molar mass of the structure shown.

One may read the LD50 as the dose at which mortality reaches 50%. For orientation: ED50 means the midpoint of the dose-response relation. Higher therefore signals a need for a large dose.

Regarding `O=C(O)c1c(=O)c2cc(F)c(N3CCNCC3)cc2n2ccsc12` [Example 13, 7-fluoro-5-oxo-8(1-piperazinyl)-5H-thiazolo(3,2-a)quinoline-4-carboxylic acid], the MIC is 6.3 ng/mL (≈ 0.0181 µM) in series [1]; 0.1 µg/mL (≈ 0.288 µM) in series [2]; 0.1 µg/mL (≈ 0.288 µM) in series [3]; 0.78 µg/mL (≈ 2.25 µM) in series [4]; 0.78 µg/mL (≈ 2.25 µM) in series [5]; 6.3 ng/mL (≈ 0.0181 µM) in series [6]. For the same compound, the MIC is 0.05 µg/mL (≈ 0.144 µM) in [7]; 0.025 µg/mL (≈ 0.072 µM) in series [8]; 0.2 µg/mL (≈ 0.576 µM) in [9]; 0.78 µg/mL (≈ 2.25 µM) in series [10]; 0.0063 µg/mL (≈ 0.0181 µM) in [11]; 13 ng/mL (≈ 0.0374 µM) in series [12]. Besides, the MIC in series [13] was found to be 0.2 µg/mL (≈ 0.576 µM); in series [14], 0.2 µg/mL (≈ 0.576 µM); in series [15], 0.78 µg/mL (≈ 2.25 µM); in series [16], 0.5 µg/mL (≈ 1.44 µM); in [17] it was 0.2 µg/mL (≈ 0.576 µM); in series [18], 0.025 µg/mL (≈ 0.072 µM). In addition, the MIC in series [19] worked out at 0.05 µg/mL (≈ 0.144 µM). Also, in series [20], the LD50 is greater than 2000 mg/kg.
As for `CN1CCN(c2cc3c(cc2F)c(=O)c(C(=O)O)c2sccn23)CC1` [Example 14, 7-fluoro-8-(4-methyl-1-piperazinyl)-5-oxo-5H-thiazolo(3,2-a)-quinoline-4-carboxylic acid], the MIC in [1] was 6.3 ng/mL (≈ 0.0174 µM); in [2] it was 0.2 µg/mL (≈ 0.553 µM); in series [3] it was 0.2 µg/mL (≈ 0.553 µM); in series [4], 0.39 µg/mL (≈ 1.08 µM); in series [5], 0.78 µg/mL (≈ 2.16 µM); in series [6] it was 13 ng/mL (≈ 0.036 µM). Besides, the MIC in series [7] came to 0.1 µg/mL (≈ 0.277 µM); in [8], 0.1 µg/mL (≈ 0.277 µM); in [9], 1.56 µg/mL (≈ 4.32 µM); in series [10], 0.78 µg/mL (≈ 2.16 µM); in series [11], 0.013 µg/mL (≈ 0.036 µM); in series [12], 6.3 ng/mL (≈ 0.0174 µM). Besides, the MIC in [13] amounted to 0.39 µg/mL (≈ 1.08 µM); in [14] it was 0.39 µg/mL (≈ 1.08 µM); in series [15] it was 0.78 µg/mL (≈ 2.16 µM); in [16] it was 0.025 µg/mL (≈ 0.0692 µM); in series [17] it was 0.39 µg/mL (≈ 1.08 µM); in [18], 0.1 µg/mL (≈ 0.277 µM). Further, the MIC in [19] worked out at 0.05 µg/mL (≈ 0.138 µM). The ED50 in [21] came to 1.5 mg/kg; in series [22], 16 mg/kg. Also, in [20], the LD50 was greater than 2000 mg/kg.
As for `Cc1csc2c(C(=O)O)c(=O)c3cc(F)c(N4CCNCC4)cc3n12` [Example 21, 7-fluoro-1-methyl-5-oxo-8-(1-piperazinyl)-5H-thiazolo(3,2-a)-quinoline-4-carboxylic acid], the MIC in series [1] is 6.3 ng/mL (≈ 0.0174 µM); in series [2], 0.2 µg/mL (≈ 0.553 µM); in series [3], 0.1 µg/mL (≈ 0.277 µM); in series [4], 0.2 µg/mL (≈ 0.553 µM); in series [5] it was 0.78 µg/mL (≈ 2.16 µM); in series [6], 6.3 ng/mL (≈ 0.0174 µM). The MIC in series [7] was 0.025 µg/mL (≈ 0.0692 µM); in [8], 0.013 µg/mL (≈ 0.036 µM); in series [9] it was 0.2 µg/mL (≈ 0.553 µM); in [10] it was 0.39 µg/mL (≈ 1.08 µM); in series [11] it was 0.05 µg/mL (≈ 0.138 µM); in [12], 1.6 ng/mL (≈ 0.00443 µM). Besides, the MIC in [13] stood at 0.39 µg/mL (≈ 1.08 µM); in [14] it was 0.39 µg/mL (≈ 1.08 µM); in [15] it was 0.2 µg/mL (≈ 0.553 µM); in [16], 0.013 µg/mL (≈ 0.036 µM); in series [17], 0.2 µg/mL (≈ 0.553 µM); in series [18], 0.025 µg/mL (≈ 0.0692 µM). Further, the MIC in series [19] came to 0.013 µg/mL (≈ 0.036 µM). Further, the LD50 in series [20] is greater than 2000 mg/kg.
